One assay concerns Ad8. The experiment in a line: Plaque reduction assay in A549 cells, Ad8. It counts as cell-based. The settings on record: unidentified adenovirus, A549, 168 h, read-out: Adenovirus Serotype EC50 (μg/mL) Ad8. On the procedure:
(§1) Compounds of the present invention were tested for potency against AdV serotypes Ad3, Ad4, Ad5, Ad7a, Ad8, Ad19, and Ad37 in a plaque reduction assay, a cell-based assay of AdV replication. Ad8, Ad19, and Ad37 are the serotypes most commonly associated with epidemic keratoconjunctivitis (EKC). Ad3, Ad4, and Ad7a are serotypes most commonly associated with follicular conjunctivitis and serotype Ad5 can replicate in the NZW rabbit model of adenoviral ocular keratitis. Ad3, Ad4, Ad5, Ad7a, Ad8, and Ad19 were recovered at the Charles T. Campbell Ophthalmic Microbiology Laboratory from patients presenting with typical adenoviral ocular disease. No clinical isolates of Ad37 were available, so the ATCC (American Type Culture Collection, Manassas, Va.) reference strain of Ad37 was used.
(§2) EC50 values (μg/ml) for inhibition of adenoviral replication were determined by plaque reduction assay. Briefly, cultured A549 cells were inoculated with approximately 100 pfu of the indicated adenovirus serotype. Inoculated cells were overlaid with methylcellulose medium containing Compound 2 at 100, 10, 1, 0.1, 0.01, and 0.001 μg/ml, and incubated at 37° C./5% CO2 for approximately 7 d. Plates were stained with gentian violet, and plaques were counted in a 25× dissecting microscope. IC50, the concentration that inhibited plaque formation by 50%, was estimated from plots of mean plaque count vs. concentration.

Assay [1] concerns Ad5. The experiment in a line: Ad5 genome replication assay (cell-based QPCR) in A549 cells. The note with it: Human adenovirus sp., A549, 72 h, read-out: Ad5 qPCR EC50 (μM). On the procedure: Compounds of the present invention were tested for potency against Ad5 in an Ad5 genome replication assay, a cell-based QPCR assay of Ad5 genome replication in A549 cells, a human lung carcinoma cell line. Serotype of human Ad5, used in this replication assay can also replicate in a NZW rabbit model of adenoviral ocular keratitis.
EC50 values (μM) for inhibition of adenoviral replication were determined by QPCR. Briefly, 10,000 cultured A549 cells were inoculated with 25,000 pfu/well for 3 hrs in 2% FBS F12-K A549 culture media. Following inoculation, A549 cells were treated with log unit dilutions of compound of Formula I (˜10 μM thru˜10 pM) in 10% FBS F12-K culture media with 0.3% DMSO for an additional 3 days. Cell viability was assessed with Alamar Blue (10 μl/well for 2 hrs; fluorescence Ex353; Em595 nm). Plates were washed 3 times with 125 μl PBS, cell lysates were prepared for QPCR analysis using Cells to SNP kit (Life Technologies). Ad5 genome levels per cell were determined with RNaseP and Ad5 hexon Taqman Assays (Life Technologies). EC50, the concentration that inhibited Ad5 genome replication formation by 50%, was estimated from plots of Ad5 genomes/cell vs. compound concentration.
Background: Quantitative PCR measures a nucleic acid by following its amplification.

Another assay concerns Ad3. The assay can be described thus: Plaque reduction assay in A549 cells, Ad3. Type of assay: cell-based. The settings on record: unidentified adenovirus, 168 h, approximately 7 d, read-out: Adenovirus Serotype EC50 (μg/mL) Ad3. Here is the method: as §1, §2
(In a plaque reduction assay, fewer plaques than in the control indicate reduced infectivity or spread.)

The subject of a further assay is Ad7a. The experiment in a line: Plaque reduction assay in A549 cells, Ad7a. Type of assay: cell-based. The settings on record: unidentified adenovirus, 168 h, approximately 7 d, read-out: Adenovirus Serotype EC50 (μg/mL) Ad7a. On the procedure: as §1, §2
In another assay the test system is Ad4. The assay can be described thus: Plaque reduction assay in A549 cells, Ad4. It counts as cell-based. The settings on record: unidentified adenovirus, 168 h, approximately 7 d, read-out: Adenovirus Serotype EC50 (μg/mL) Ad4. On the procedure: as §1, §2
For assay [2], the system named is Ad5. The assay can be described thus: Plaque reduction assay in A549 cells, Ad5. It counts as cell-based. The settings on record: unidentified adenovirus, A549, 168 h, read-out: Adenovirus Serotype EC50 (μg/mL) Ad5. On the procedure:
as §1, §2

Another assay deals with Ad19. The assay can be described thus: Plaque reduction assay in A549 cells, Ad19. Type of assay: cell-based. The note with it: unidentified adenovirus, 168 h, approximately 7 d, read-out: Adenovirus Serotype EC50 (μg/mL) Ad19. On the procedure: as §1, §2
For another assay, the system named is Ad37. The experiment in a line: Plaque reduction assay in A549 cells, Ad37. It counts as cell-based. The note with it: unidentified adenovirus, 168 h, approximately 7 d, ATCC reference strain, read-out: Adenovirus Serotype EC50 (μg/mL) Ad37. On the procedure:
as §1, §2

In brackets after ≈: the same amount, converted by molar mass.

With `CC(C)C[C@H]1c2[nH]c3ccc(Cl)cc3c2CCN1C(=O)CCN1CCC(F)(F)CC1` [Compound 6, (S)-1-(6-chloro-1-isobutyl-3,4-dihydro-1H-pyrido[3,4-b]indol-2(9H)-yl)-3-(4,4-difluoropiperidin-1-yl)propan-1-one], the EC50 in the assay with Ad8 was less than 0.1 µg/mL; with Ad5 [1] it was less than 0.1 µM; with Ad3, less than 0.1 µg/mL; with Ad7a it was less than 0.1 µg/mL; in the assay with Ad4, 0.1 to 1 µg/mL (≈ 0.228 to 2.28 µM); in the assay with Ad5 [2] it was less than 0.1 µg/mL. In addition, the EC50 in the assay on Ad19 and in the assay on Ad37 was less than 0.1 µg/mL throughout.

`CC(C)C[C@H]1c2[nH]c3ccc(Cl)cc3c2CCN1C(=O)CCN1CC[C@H](F)C1` [Compound 35, 1-((S)-6-chloro-1-isobutyl-3,4-dihydro-1H-pyrido[3,4-b]indol-2(9H)-yl)-3-((S)-3-fluoropyrrolidin-1-yl)propan-1-one]: the EC50 with Ad8 is 0.1 to 1 µg/mL (≈ 0.246 to 2.46 µM); in the assay with Ad5 [1], 0.1 to 1 µM; in the assay on Ad3, 0.1 to 1 µg/mL (≈ 0.246 to 2.46 µM); with Ad7a it was 0.1 to 1 µg/mL (≈ 0.246 to 2.46 µM); in the assay with Ad4, more than 1 µg/mL; in the assay with Ad5 [2] it was 0.1 to 1 µg/mL (≈ 0.246 to 2.46 µM). Moreover, the EC50 with Ad19 and with Ad37 was 0.1 to 1 µg/mL (≈ 0.246 to 2.46 µM) each time.

For `CC(C)CC1c2[nH]c3ccc(Cl)cc3c2CCN1C(=O)CNc1ccccc1` (centres unmarked) [Compound 70], in the assay on Ad5 [1], the EC50 was less than 0.1 µM.

As for `CC(C)CC1c2[nH]c3ccc(Cl)cc3c2CCN1C(=O)COc1ccccc1` (centres unmarked) [Compound 71], the EC50 in the assay on Ad5 [1] is 0.1 to 1 µM.

`CC(C)CC1c2[nH]c3ccc(Cl)cc3c2CCN1C(=O)CCc1ccc(O)cc1` (centres unmarked) [Compound 72]: the EC50 in the assay on Ad5 [1] is more than 1 µM.

On to `CC(C)CC1c2[nH]c3ccc(Cl)cc3c2CCN1C(=O)CN(C)c1ccccc1` (centres unmarked) [Compound 74], for which the EC50 in the assay with Ad5 [1] fell in the range of 0.1 to 1 µM.

In the case of `CC(C)CC1c2[nH]c3ccc(Cl)cc3c2CCN1C(=O)CC1CCN(C2CC2)CC1` (centres unmarked) [Compound 75], the EC50 with Ad5 [1] is 0.1 to 1 µM.

For `CC(C)CC1c2[nH]c3ccc(Cl)cc3c2CCN1C(=O)[C@@H](N)Cc1ccccc1` (some centres unmarked) [Compound 76], the EC50 with Ad5 [1] was more than 1 µM.

`O=C(CCC1CCCCC1)N1CCc2c([nH]c3ccc(Cl)cc23)C1CN1CCC(F)(F)CC1` (centres unmarked) [Compound 78, 1-(6-chloro-1-1((4,4-difluoropiperidin-1-yl)methyl)-3,4-dihydro-1H-pyrido[3,4-b]indol-2(9H)-yl)-3-cyclohexylpropan-1-one]: the EC50 with Ad5 [1] lay within 0.1 to 1 µM.

For the compound `CC(C)CC1c2[nH]c3ccc(Cl)cc3c2CCN1CC(=O)NC1CCCCC1` (centres unmarked) [Compound 79], the EC50 in the assay with Ad5 [1] fell in the range of 0.1 to 1 µM.

With `O=C(CCC1CCCCC1)N1CCc2c([nH]c3ccc(Cl)cc23)C1CN1CCCCC1` (centres unmarked) [Compound 80], in the assay on Ad5 [1], the EC50 was more than 1 µM.

In the case of `CC(C)CC1c2[nH]c3ccc(Cl)cc3c2CCN1C(=O)C1CN(c2ncccn2)C1` (centres unmarked) [Compound 81], the EC50 in the assay on Ad5 [1] was in the range of 0.1 to 1 µM.

In the case of `Cc1nnc(CCC(=O)N2CCc3c([nH]c4ccc(Cl)cc34)C2CC(C)C)o1` (centres unmarked) [Compound 82], the EC50 in the assay on Ad5 [1] lay within 0.1 to 1 µM.

Take `CC(C)C[C@H]1c2[nH]c3ccc(Cl)cc3c2CCN1C(=O)C1CCN(CC(F)F)CC1` [Compound 83]: the EC50 in the assay with Ad5 [1] is 0.1 to 1 µM.

For `CC(C)CC1c2[nH]c3ccc(Cl)cc3c2CCN1C(=O)CN1CCC(F)(F)C1` (centres unmarked) [Compound 84], the EC50 with Ad5 [1] lay in the range of 0.1 to 1 µM.

Consider `CC(C)CC1c2[nH]c3ccc(Cl)cc3c2CCN1C(=O)CN1CC(F)(F)C1` (centres unmarked) [Compound 85, 1-(6-chloro-1-isobutyl-3,4-dihydro-1H-pyrido[3,4-b]indol-2(9H)-yl)-2-(3,3-difluoroazetidin-1-yl)ethanone], for which the EC50 with Ad5 [1] is less than 0.1 µM.

As for `CC(C)CC1c2[nH]c3ccc(Cl)cc3c2CCN1C(=O)CNCCN1CCC(F)(F)CC1` (centres unmarked) [Compound 86], the EC50 in the assay on Ad5 [1] was more than 1 µM.

In the case of `CC(C)CC1c2[nH]c3ccc(Cl)cc3c2CCN1Cc1ccccn1` (centres unmarked) [Compound 87], the EC50 in the assay with Ad5 [1] lay in the range of 0.1 to 1 µM.

Regarding `CC(C)CC1c2[nH]c3ccc(Cl)cc3c2CCN1Cc1ccco1` (centres unmarked) [Compound 88], the EC50 in the assay on Ad5 [1] was 0.1 to 1 µM.

On to `CC(C)CC1c2[nH]c3ccc(Cl)cc3c2CCN1C(=O)CNCc1ccco1` (centres unmarked) [Compound 89], for which the EC50 with Ad5 [1] was more than 1 µM.

In the case of `CC(C)CC1c2[nH]c3ccc(Cl)cc3c2CCN1C(=O)CNCc1ccno1` (centres unmarked) [Compound 90], the EC50 with Ad5 [1] was more than 1 µM.

On to `CC(C)C[C@H]1c2[nH]c3ccc(Cl)cc3c2CCN1C(=O)CNC1CCC(F)(F)CC1` [Compound 94, (S)-1-(6-chloro-1-isobutyl-3,4-dihydro-1H-pyrido[3,4-b]indol-2(9H)-yl)-2-((4,4-difluorocyclohexyl)amino)ethanone], for which, in the assay with Ad5 [1], the EC50 is less than 0.1 µM.

With `CC(C)CC1c2[nH]c3ccc(Cl)cc3c2CCN1C1CC1` (centres unmarked) [Compound 95], the EC50 in the assay with Ad5 [1] is less than 0.1 µM.

On to `CC(C)CC1c2[nH]c3ccc(Cl)cc3c2CCN1CC1CC1` (centres unmarked) [Compound 96], for which the EC50 in the assay on Ad5 [1] lay within 0.1 to 1 µM.

`CC(C)C[C@H]1c2[nH]c3ccc(Br)cc3c2CCN1C(=O)CNC1CC1` [Compound 98, (S)-1-(6-bromo-1-isobutyl-3,4-dihydro-1H-pyrido[3,4-b]indol-2(9H)-yl)-2-(cyclopropylamino)ethanone]: in the assay on Ad5 [1], the EC50 is less than 0.1 µM.

In the case of `CC(C)C[C@H]1c2[nH]c3ccc(Cl)cc3c2CCN1C(=O)CC1CCN(CC(F)F)CC1` [Compound 100], in the assay with Ad5 [1], the EC50 was less than 0.1 µM.

Regarding `CC(C)CC1c2[nH]c3ccc(Cl)cc3c2CCN1CCN1CC[C@H](F)C1` (some centres unmarked) [Compound 101], the EC50 in the assay on Ad5 [1] is more than 1 µM.

As to `CC(C)CC1c2[nH]c3ccc(Cl)cc3c2CCN1C(=O)C1(F)CNC1` (centres unmarked) [Compound 102], the EC50 in the assay on Ad5 [1] is 0.1 to 1 µM.

Turning to `CC(C)CC1c2[nH]c3ccc(Cl)cc3c2CCN1C(=O)C1(F)CN(CC(C)C)C1` (centres unmarked) [Compound 103, (6-chloro-1-isobutyl-3,4-dihydro-1H-pyrido[3,4-b]indol-2(9H)-yl)(3-fluoro-1-isobutylazetidin-3-yl)methanone], the EC50 in the assay on Ad5 [1] is less than 0.1 µM.

`CC(C)C[C@H]1c2[nH]c3ccc(Cl)cc3c2CCN1C(=O)CNC1CC(F)(F)C1` [Compound 104, (S)-1-(6-chloro-1-isobutyl-3,4-dihydro-1H-pyrido[3,4-b]indol-2(9H)-yl)-2-((3,3-difluorocyclobutyl)amino)ethanone]: the EC50 in the assay with Ad5 [1] was less than 0.1 µM.

As to `CC(C)C[C@H]1c2[nH]c3ccc(Br)cc3c2CCN1C(=O)CCN1CC[C@H](F)C1` [Compound 105], the EC50 in the assay on Ad5 [1] was 0.1 to 1 µM.

`CCCCN1CC(F)(C(=O)N2CCc3c([nH]c4ccc(Cl)cc34)C2CC(C)C)C1` (centres unmarked) [Compound 106]: the EC50 in the assay on Ad5 [1] was less than 0.1 µM.

With `CC(C)CC1c2[nH]c3ccc(Cl)cc3c2CCN1C(=O)C1CN(CC2CC2(F)F)C1` (centres unmarked) [Compound 107], the EC50 in the assay with Ad5 [1] is more than 1 µM.

Turning to `CC(C)C[C@H]1c2[nH]c3ccc(Cl)cc3c2CCN1C(=O)CNCCC(F)(F)F` [Compound 108, (S)-1-(6-chloro-1-isobutyl-3,4-dihydro-1H-pyrido[3,4-b]indol-2(9H)-yl)-2-(3,3,3-trifluoropropylamino)ethanone], the EC50 in the assay with Ad5 [1] is less than 0.1 µM.

For `CC(C)CC1c2[nH]c3ccc(Cl)cc3c2CCN1CCCc1ccccc1` (centres unmarked) [Compound 109], the EC50 in the assay with Ad5 [1] lay within 0.1 to 1 µM.

In the case of `CC(C)C[C@H]1c2[nH]c3ccc(Cl)cc3c2CCN1CCN1CCC(F)(F)CC1` [Compound 110, (S)-6-chloro-2-(2-(4,4-difluoropiperidin-1-yl)ethyl)-1-isobutyl-2,3,4,9-tetrahydro-1H-pyrido[3,4-b]indole], the EC50 in the assay on Ad5 [1] was 0.1 to 1 µM.
